Experiments:
[1] = molecular target: Auxenochlorella protothecoides ApPPO1 (SEQ ID NO: 1) variant R140A, fused to MBP (Auxenochlorella protothecoides, UniProt A0A087SQM0, R140A); test: PPO enzyme inhibition assay (IC50), MBP-fused PPO; type: biochemical
Procedure: (§1) Thus, PPO proteins of wild type and variants were expressed as fused to MBP and were used for experiments.
(§2) The following process for purification of PPO protein was performed in a 4° C. cold room. […] The column was washed with 3 column volumes of buffer and the presence of protein in the washing solution was examined. When the protein was no longer detected, the washing procedure was terminated. Then, the MBP-PPO protein was eluted with approximately 2 column volumes of buffer containing 20 mM maltose. The protein concentration of each eluent was determined and the elution was stopped when the protein was no longer detected. Ten microliter of each fraction was investigated for protein quantification and SDS-PAGE analysis. […]
(§3) Hundred and eighty microliters of a reaction mixture containing the purified PPO protein were placed in 96 well plates and 20 μl of purified PPO proteins were added. […] The reaction proceeded at room temperature for 30 min and the fluorescence of protoporphyrin IX was measured using Microplate reader (Sense, Hidex) (excitation: 405 nm; emission: 633 nm). […] To this, 2.7 N HCl was added, and the absorbance at 408 nm was measured. A standard curve was generated using standard protoporphyrin IX, and PPO activity was measured by calibration of protoporphyrin IX using the standard curve of protoporphyrin IX.

[2] = molecular target: Auxenochlorella protothecoides ApPPO1 (SEQ ID NO: 1) variant F209A, fused to MBP (Auxenochlorella protothecoides, UniProt A0A087SQM0, F209A); test: PPO enzyme inhibition assay (IC50), MBP-fused PPO; type: biochemical
Procedure: as §1, §2, §3

[3] = molecular target: Auxenochlorella protothecoides ApPPO1 (SEQ ID NO: 1) variant A215L, fused to MBP (Auxenochlorella protothecoides, UniProt A0A087SQM0, A215L); test: biochemical
Procedure: as §1, §2, §3

[4] = molecular target: Auxenochlorella protothecoides ApPPO1 (SEQ ID NO: 1) variant L389T, fused to MBP (Auxenochlorella protothecoides, UniProt A0A087SQM0, L389T); test: PPO enzyme inhibition assay (IC50), MBP-fused PPO; type: biochemical
[5] = molecular target: T1, Myxococcus xanthus MxPPO (SEQ ID NO: 3) variant A170L, fused to MBP (Myxococcus xanthus, UniProt P56601, A170L); test: biochemical
T1 construct: made in house; host or cells: BL21 CodonPlus(DE3) E. coli
Procedure: as §1
(§4) In order to express wild type and variant proteins of ApPPO1 and MxPPO, those genes were introduced into pMAL-c2x vector (refer to FIG. 25), respectively.
as §2
(§5) Hundred and eighty microliters of a reaction mixture containing the purified PPO protein were placed in 96 well plates and 20 μl of purified PPO proteins were added. […] The reaction proceeded at room temperature for 30 min and the fluorescence of protoporphyrin IX was measured using Microplate reader (Sense, Hidex) (excitation: 405 nm; emission: 633 nm). […] To this, 2.7 N HCl was added, and the absorbance at 408 nm was measured. […]

[6] = molecular target: T2, Myxococcus xanthus MxPPO (SEQ ID NO: 3) variant F329V, fused to MBP (Myxococcus xanthus, UniProt P56601, F329V); test: PPO enzyme inhibition assay (IC50), MBP-fused PPO (Table 15); type: biochemical
T2 construct: For encoding the PPO protein (MxPPO); made in house; host or cells: BL21 CodonPlus(DE3) E. coli
Procedure: as §1, §4, §2, §5

[7] = tested on: E. coli BT3(ΔPPO) transformed with Auxenochlorella protothecoides ApPPO1 (SEQ ID NO: 1) variant A215L (AL); test: Herbicide tolerance test in PPO-deficient E. coli BT3(ΔPPO), growth on plates; type: cell-based; details: Table 7, light, 37° C., 16 to 20 hours, vs wild type at highest herbicide concentration
Procedure: (§6) The mutated CyPPO gene obtained from the Example 2 was transformed to BT3 (ΔPPO) strain which is deficient of PPO activity and cultured in LB media with PPO-inhibiting herbicide, thereby examining whether growth of transformed BT3 was not inhibited.
(§7) BT3 competent cells were transformed with the pET303-ApPPO1 and pET303-MxPPO plasmids and those with a mutation(s) constructed in Example 2 respectively, and were cultured in LB agar media containing carbenicillin (Gold Biotechnology, Co., Ltd.).
(§8) Single colony of E. coli transformed with each CyPPO gene was cultured in 3 ml of LB broth containing carbenicillin overnight, and then was subcultured until absorbance (OD600) reached 0.5 to 1. Then, it was diluted with LB broth to OD600=0.5. Again, the diluted solution was serially diluted 4 times by a factor of one tenth.
(§9) The LB agar media (LB 25 g/l, Bacto agar 15 g/l) containing carbenicillin (100 μg/ml) and 0 to 4,000 μM of various herbicides dissolved in DMSO was prepared. Next, 10 μl of each diluted solution was dropped on the plate and cultured at 37° C. under light (Tables 7, 9 and 10, FIGS. 2 to 6, 13 to 20) or dark (Tables 8 and 11, FIGS. 7 to 12, 21 to 24) for 16 to 20 hours. Then, the extent of tolerance was evaluated.
(§10) The extent of herbicide tolerance of the ApPPO1 or MxPPO mutated genes was evaluated by comparing that of mutated genes with that of ApPPO1 or MxPPO wild type. The relative tolerance was represented with “+” as a factor of 10 times.
(§11) In Tables 7 to 11, tolerance level was presented as ‘−’ of tolerance of wild type and of variants equivalent to that of wild type, and was done as ‘+’ per each 10 fold resistance until ‘+++++’ as maximal resistance. […] A dilution series (OD600=0.5, 0.05, 0.005, 0.0005, 0.00005) was made and spotted on LB agar plates supplemented with herbicides.

[8] = tested on: E. coli BT3(ΔPPO) transformed with Auxenochlorella protothecoides ApPPO1 (SEQ ID NO: 1) variant Y422T (YT); test: as above; type: cell-based; details: Table 7, light, 37° C., 16 to 20 hours, vs wild type at highest herbicide concentration
Procedure: as §6, §7, §8, §9, §10, §11

[9] = tested on: E. coli BT3(ΔPPO) transformed with Auxenochlorella protothecoides ApPPO1 (SEQ ID NO: 1) variant Y422C (YC); test: as above; type: cell-based; details: Table 7, light, 37° C., 16 to 20 hours, vs wild type at highest herbicide concentration
Procedure: as §6, §7, §8, §9, §10, §11

[10] = tested on: E. coli BT3(ΔPPO) transformed with Myxococcus xanthus MxPPO (SEQ ID NO: 3) variant I311M; test: as above; type: cell-based; details: Table 9, light, tiafenacil to 2000 μM, saflufenacil to 200 μM, flumioxazin to 100 μM
Procedure: as §6, §7, §8, §9
(§12) The extent of herbicide tolerance of the ApPPO1 or MxPPO mutated genes was evaluated by comparing that of mutated genes with that of ApPPO1 or MxPPO wild type. […]

[11] = tested on: E. coli BT3(ΔPPO) transformed with Myxococcus xanthus MxPPO (SEQ ID NO: 3) variant M365I; test: as above; type: cell-based; details: Table 9, light, tiafenacil to 2000 μM, saflufenacil to 200 μM, flumioxazin to 100 μM
Procedure: as §6, §7, §8, §9, §12

[12] = tested on: E. coli BT3(ΔPPO) transformed with Myxococcus xanthus MxPPO (SEQ ID NO: 3) variant M365L; test: as above; type: cell-based; details: Table 9, light, tiafenacil to 2000 μM, saflufenacil to 200 μM, flumioxazin to 100 μM
Procedure: as §6, §7, §8, §9, §12

[13] = tested on: transgenic A. thaliana transformed with ApPPO1 variants, MxPPO or MxPPO variants; test: Herbicide spray test on 4-week-old plants, transgenic; type: in vivo, Arabidopsis thaliana; details: 100 ml of 1 μM tiafenacil and 0.05% Silwet L-77 per 0.24 m^2
From the text: A. thaliana was transformed with a binary vector having ORF of a selectable marker, Bar gene (glufosinate-tolerant gene), and ORF of each gene of ApPPO1 variants, MxPPO, and MxPPO variants. The transgenic plant was examined for cross-tolerance towards glufosinate and PPO-inhibiting herbicides. The bar gene was also used to examine whether the transgene was stably inherited during generations. NOS promoter and E9 terminator were used for bar gene expression.
In order to express proteins of ApPPO1 variants, MxPPO, and MxPPO variants in plants, a CaMV35S promoter and a NOS terminator were used. Encoding genes of ApPPO1 variants, MxPPO, and MxPPO variants were introduced into binary vector using XhoI and BamHI restriction enzymes. Furthermore, for confirmation of the protein expression, hemagglutinin (HA) tag was fused to the C-terminal region of PPO protein coding gene using BamHI and SacI restriction enzymes. […]
Each transformed Agrobacterium was screened in spectinomycin-containing LB media. […] After Agrobacterium cell was harvested from the culture media, it was resuspended in the solution containing 5% sucrose (w/v) and 0.05% Silwet L-77 (v/v) (Momentive Performance Materials Co., Ltd.) at an absorbance (OD600) of 0.8. […]

Sequence of Auxenochlorella protothecoides ApPPO1 (SEQ ID NO: 1) variant F209A, fused to MBP (A0A087SQM0 entry or part of it F209A): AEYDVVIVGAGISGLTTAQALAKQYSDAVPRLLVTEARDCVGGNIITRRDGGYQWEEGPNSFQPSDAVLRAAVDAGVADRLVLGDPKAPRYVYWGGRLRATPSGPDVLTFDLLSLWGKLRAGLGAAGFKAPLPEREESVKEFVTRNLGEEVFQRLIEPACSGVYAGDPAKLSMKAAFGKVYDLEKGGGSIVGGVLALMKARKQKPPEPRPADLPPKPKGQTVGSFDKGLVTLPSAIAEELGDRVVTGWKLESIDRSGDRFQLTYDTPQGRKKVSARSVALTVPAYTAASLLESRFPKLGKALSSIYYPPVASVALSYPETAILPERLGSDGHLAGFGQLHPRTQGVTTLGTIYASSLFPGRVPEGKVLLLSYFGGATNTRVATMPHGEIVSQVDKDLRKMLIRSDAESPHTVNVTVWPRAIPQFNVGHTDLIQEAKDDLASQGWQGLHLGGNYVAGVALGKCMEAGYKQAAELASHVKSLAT
Sequence of Auxenochlorella protothecoides ApPPO1 (SEQ ID NO: 1) variant L389T, fused to MBP (A0A087SQM0 entry or part of it L389T): as the sequence (A0A087SQM0 entry or part of it F209A) above, with A159F, L339T counted along it
T2 sequence (P56601 whole entry F329V, the tested form may be a part): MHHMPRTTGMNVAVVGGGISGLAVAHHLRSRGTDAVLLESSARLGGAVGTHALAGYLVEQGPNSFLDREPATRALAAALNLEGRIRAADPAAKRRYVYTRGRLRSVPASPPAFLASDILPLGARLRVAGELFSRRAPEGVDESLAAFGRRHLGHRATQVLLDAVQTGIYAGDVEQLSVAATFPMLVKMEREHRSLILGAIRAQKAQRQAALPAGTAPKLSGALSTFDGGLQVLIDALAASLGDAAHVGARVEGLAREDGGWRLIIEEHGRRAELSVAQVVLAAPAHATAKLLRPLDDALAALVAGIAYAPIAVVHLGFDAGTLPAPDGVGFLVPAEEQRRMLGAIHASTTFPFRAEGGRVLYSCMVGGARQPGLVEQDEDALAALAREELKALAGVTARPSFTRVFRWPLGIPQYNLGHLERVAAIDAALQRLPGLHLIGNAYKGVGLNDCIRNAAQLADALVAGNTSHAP
Sequence of Auxenochlorella protothecoides ApPPO1 (SEQ ID NO: 1) variant A215L, fused to MBP (A0A087SQM0 entry or part of it A215L): as the sequence (A0A087SQM0 entry or part of it F209A) above, with A159F, A165L counted along it
Sequence of Auxenochlorella protothecoides ApPPO1 (SEQ ID NO: 1) variant R140A, fused to MBP (A0A087SQM0 entry or part of it R140A): as the sequence (A0A087SQM0 entry or part of it F209A) above, with R90A, A159F counted along it
T1 sequence (P56601 whole entry A170L, the tested form may be a part): as the sequence (P56601 whole entry F329V, the tested form may be a part) above, with A170L, V329F counted along it

SMILES: COC(=O)CCNC(=O)C(C)Sc1cc(-n2c(=O)cc(C(F)(F)F)n(C)c2=O)c(F)cc1Cl (stereo not shown) [tiafenacil]
- IC50 [1]: 86 nM
- IC50 [2]: 69 nM
- IC50 [3]: 3460 nM
- IC50 [4]: 716 nM
- IC50 [5]: > 5000 nM
- IC50 [6]: 239 nM
- relative herbicide tolerance level [7]: ++ (10-99 fold higher tolerance)
- relative herbicide tolerance level [8]: ++ (10-99 fold higher tolerance)
- relative herbicide tolerance level [9]: ++ (10-99 fold higher tolerance)
- relative herbicide tolerance level [10]: ++ (10-99 fold higher tolerance)
- relative herbicide tolerance level [11]: + (1-9 fold higher tolerance)
- relative herbicide tolerance level [12]: + (1-9 fold higher tolerance)
- plant damage after spraying [13]: no damage

Source: patent publication US20220042033A1, “COMPOSITION AND METHOD FOR CONFERRING AND/OR ENHANCING TOLERANCE AGAINST HERBICIDES BY USING VARIANTS OF PPO” (FarmHannong Co., Ltd., priority 2017, published 2022)
